# Assay results: US20260015350A1, “AZAQUINAZOLINE PAN-KRAS INHIBITORS” (Mirati Therapeutics, Inc., priority 2022, published 2026)
# Columns and labels:
# KRas^G12D = biological target: T1, KRas^G12D (Homo sapiens, UniProt P01116, G12D); assay: KRas binding assay (TR-FRET tracer displacement), KRas G12D
# T1 construct: Biotinylated KRas (corresponding to amino acids 1-169, produced at Accelegan Inc.); biotin (biotinylated); purchased Accelegan Inc
# [1] = tested on: KRas-mediated phosphorylation of ERK in H727 cells; assay: Inhibition of KRas-mediated phosphorylation of ERK (Cisbio HTRF pERK), H727 cells; assay type: cell-based; settings: Homo sapiens, NCI-H727, H727 cells; HTRF pERK
# Method: (§1) Inhibition of KRas Phosphorylation of ERK (HTRF) by Exemplary Compounds of Formula (I) Cisbio HTRF Advanced PERK Assay Catalog #64[…] […] Add 10 mL of media to stop trypsinizing. Pipette the cells into a conical bottom 50 mL centrifuge tube and centrifuge 5 min×1000 rpm. […] Re-suspend the cell pellet in media, take a cell count, and then adjust the cell density using fresh media. […] Seed 6,000 cells into cell culture plate with 50 μL media. […] Use Tecan to complete the compound addition. Compounds start from 10 uM top, 3-fold dilution, and 10 doses. The final DMSO concentration is 0.8%. Dispensed 0.2 uM Trametinib as Min control. […] Incubate cell plate for 3 hrs in the incubator. […] Dilute 1 volume of 4× lysis buffer with 3 volumes of deionized water. […] Keep lysis buffer on the ice. […] At the end of the compound treatment, flick-off the media. […] Add 35 μL of lysis buffer per well using a Multidrop Combi. Then place on a plate agitator shaking at 300 rpm at 4° C. for 40 mins. […] Make up the HTRF antibody buffer. For each assay plate, mix 50 μL of d2-conjugate antibody with 950 μL of detection buffer. Similarly, mix 50 μL of Cryptate antibody with 950 μL of detection buffer. Then mix the two diluted antibodies together. […] Dispense 3.4 μL the antibody buffer to wells of an empty assay plate. Seal the plate and centrifuge plate 30 sec×1000 rpm. […] At the end of the 4° C. lysis, centrifuge the lysate plates 3 mins×1500 rpm. […] Use the Bravo to transfer 13.6 μL of lysate from cell culture plate to assay plate. Then incubate assay plate for 2 hrs at room temperature. 8. At the end of incubation, read plate on the Envision after centrifuging plate 30 sec×1000 rpm.
# KRas^G12R = biological target: T2, KRas^G12R (Homo sapiens, UniProt P01116, G12R); assay: KRas binding assay (TR-FRET tracer displacement), KRas G12R
# T2 construct: Biotinylated KRas (corresponding to amino acids 1-169, produced at Accelegan Inc.); biotin (biotinylated); purchased Accelegan Inc
# T2 sequence (P01116 1-169 isoform P01116-2 G12R): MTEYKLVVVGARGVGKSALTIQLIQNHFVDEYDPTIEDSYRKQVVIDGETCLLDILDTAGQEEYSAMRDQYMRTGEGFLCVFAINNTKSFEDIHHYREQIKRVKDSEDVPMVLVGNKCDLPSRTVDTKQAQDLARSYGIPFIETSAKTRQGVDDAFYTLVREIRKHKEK
# KRas^G12V = biological target: T3, KRas^G12V (Homo sapiens, UniProt P01116, G12V); assay: KRas binding assay (TR-FRET tracer displacement), KRas G12V
# T3 construct: Biotinylated KRas (corresponding to amino acids 1-169, produced at Accelegan Inc.); biotin (biotinylated); purchased Accelegan Inc
# T3 sequence (P01116 1-169 isoform P01116-2 G12V): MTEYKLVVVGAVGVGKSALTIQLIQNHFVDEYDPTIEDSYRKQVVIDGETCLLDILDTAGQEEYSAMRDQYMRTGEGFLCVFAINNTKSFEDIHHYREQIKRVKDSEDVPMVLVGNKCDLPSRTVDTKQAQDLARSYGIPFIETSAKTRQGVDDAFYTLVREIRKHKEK
# [2] = tested on: KRas-mediated phosphorylation of ERK in AsPC-1 cells; assay: Inhibition of KRas-mediated phosphorylation of ERK (Cisbio HTRF pERK), AsPC-1 cells; assay type: cell-based; settings: Homo sapiens, ASPC1, AsPC-1 cells; HTRF pERK
# Method: as §1
# T1 sequence (P01116 1-169 isoform P01116-2 G12D): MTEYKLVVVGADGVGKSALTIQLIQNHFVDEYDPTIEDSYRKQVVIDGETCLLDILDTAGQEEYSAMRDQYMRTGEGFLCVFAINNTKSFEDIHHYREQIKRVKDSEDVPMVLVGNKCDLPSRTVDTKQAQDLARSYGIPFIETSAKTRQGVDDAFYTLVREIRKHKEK
Compound,IC50 (KRas^G12D),IC50 [1],IC50 (KRas^G12R),IC50 (KRas^G12V),IC50 [2]
"CCc1c(F)ccc2cc(O)cc(-c3ncc4c(NCc5cc(C(=O)N(C)C)nn5C[C@H]5C[C@@H](O)C5)nc(OC[C@@]56CCCN5C[C@H](F)C6)nc4c3F)c12 [Example 687, 5-(((7-(8-ethyl-7-fluoro-3-hydroxynaphthalen-1-yl)-8-fluoro-2-(((2R,7aS)-2-fluorohexahydro-1H-pyrrolizin-7a-yl)methoxy)pyrido[4,3-d]pyrimidin-4-yl)amino)methyl)-1-((cis-3-hydroxycyclobutyl)methyl)-N,N-dimethyl-1H-pyrazole-3-carboxamide]",405 nM,> 10000 nM,175 nM,145 nM,> 10000 nM
"O=C1NS(=O)(=O)NC12CCCN(c1nc(OC[C@@]34CCCN3C[C@H](F)C4)nc3c(F)c(-c4cc(O)cc5ccc(F)c(Cl)c45)ncc13)C2 (stereo partly drawn) [Example 816, 7-(7-(8-chloro-7-fluoro-3-hydroxynaphthalen-1-yl)-8-fluoro-2-(((2R,7aS)-2-fluorotetrahydro-1H-pyrrolizin-7a(5H)-yl)methoxy)pyrido[4,3-d]pyrimidin-4-yl)-2-thia-1,3,7-triazaspiro[4.5]decan-4-one 2,2-dioxide]",8 nM,> 10000 nM,3 nM,3 nM,> 10000 nM
"CCc1c(F)ccc2cc(O)cc(-c3ncc4c(N5CCC(Cc6ccn(C)n6)C5)nc(OC[C@@]56CCCN5C[C@H](F)C6)nc4c3F)c12 (stereo partly drawn) [Example 611, 5-ethyl-6-fluoro-4-(8-fluoro-2-(((2R,7aS)-2-fluorotetrahydro-1H-pyrrolizin-7a(5H)-yl)methoxy)-4-(3-((1-methyl-1H-pyrazol-3-yl)methyl)pyrrolidin-1-yl)pyrido[4,3-d]pyrimidin-7-yl)naphthalen-2-ol]",1530 nM,1950 nM,127 nM,121 nM,4470 nM
"CCc1c(F)ccc2cc(O)cc(-c3ncc4c(N5CC6(CO)CC(C7CC7)(C5)C6)nc(OC[C@@]56CCCN5C[C@H](F)C6)nc4c3F)c12 [Example 613, 4-(4-(1-cyclopropyl-5-(hydroxymethyl)-3-azabicyclo[3.1.1]heptan-3-yl)-8-fluoro-2-(((2R,7aS)-2-fluorohexahydro-1H-pyrrolizin-7a-yl)methoxy)pyrido[4,3-d]pyrimidin-7-yl)-5-ethyl-6-fluoronaphthalen-2-ol]",54800 nM,> 10000 nM,27500 nM,21800 nM,> 10000 nM
"CCc1c(F)ccc2cc(O)cc(-c3ncc4c(N5CCC(N6C(=O)OC7CNCC76)CC5)nc(OC[C@@]56CCCN5C[C@H](F)C6)nc4c3F)c12 (stereo partly drawn) [Example 659, 3-(1-(7-(8-ethyl-7-fluoro-3-hydroxynaphthalen-1-yl)-8-fluoro-2-(((2R,7aS)-2-fluorotetrahydro-1H-pyrrolizin-7a(5H)-yl)methoxy)pyrido[4,3-d]pyrimidin-4-yl)piperidin-4-yl)hexahydro-2H-pyrrolo[3,4-d]oxazol-2-one]",462 nM,> 10000 nM,1610 nM,582 nM,> 10000 nM
"CCc1c(F)ccc2cc(O)cc(-c3ncc4c(N5CCOCC6(CCS(=O)(=O)CC6)C5)nc(OC[C@@]56CCCN5C[C@H](F)C6)nc4c3F)c12 [Example 667, 11-(7-(8-ethyl-7-fluoro-3-hydroxynaphthalen-1-yl)-8-fluoro-2-(((2R,7aS)-2-fluorohexahydro-1H-pyrrolizin-7a-yl)methoxy)pyrido[4,3-d]pyrimidin-4-yl)-8-oxa-3-thia-11-azaspiro[5.6]dodecane 3,3-dioxide]",445 nM,6050 nM,323 nM,203 nM,6150 nM
"CCc1c(F)ccc2cc(O)cc(-c3ncc4c(N5CCCC(N6C(=O)CCC6=O)C5)nc(OC[C@@]56CCCN5C[C@H](F)C6)nc4c3F)c12 (stereo partly drawn) [Example 638, 1-(1-(7-(8-ethyl-7-fluoro-3-hydroxynaphthalen-1-yl)-8-fluoro-2-(((2R,7aS)-2-fluorotetrahydro-1H-pyrrolizin-7a(5H)-yl)methoxy)pyrido[4,3-d]pyrimidin-4-yl)piperidin-3-yl)pyrrolidine-2,5-dione]",41 nM,1270 nM,16 nM,34 nM,930 nM
"CCc1c(F)ccc2cc(O)cc(-c3ncc4c(N5CC6(CO)CC5CCO6)nc(OC[C@@]56CCCN5C[C@H](F)C6)nc4c3F)c12 (stereo partly drawn) [Example 572, 5-ethyl-6-fluoro-4-(8-fluoro-2-(((2R,7aS)-2-fluorohexahydro-1H-pyrrolizin-7a-yl)methoxy)-4-(1-(hydroxymethyl)-2-oxa-6-azabicyclo[3.2.1]octan-6-yl)pyrido[4,3-d]pyrimidin-7-yl)naphthalen-2-ol]",1970 nM,4190 nM,162 nM,266 nM,> 10000 nM
"CCc1c(F)ccc2cc(O)cc(-c3ncc4c(N5CCCC6(CC=CCO6)C5)nc(OC[C@@]56CCCN5C[C@H](F)C6)nc4c3F)c12 (stereo partly drawn) [Example 589, 5-ethyl-6-fluoro-4-(8-fluoro-2-(((2R,7aS)-2-fluorotetrahydro-1H-pyrrolizin-7a(5H)-yl)methoxy)-4-(1-oxa-8-azaspiro[5.5]undec-3-en-8-yl)pyrido[4,3-d]pyrimidin-7-yl)naphthalen-2-ol]",38 nM,731 nM,12 nM,16 nM,1540 nM
"CCc1c(F)ccc2cc(O)cc(-c3ncc4c(NS(=O)(=O)C5CCCNCC5)nc(OC[C@@]56CCCN5C[C@H](F)C6)nc4c3F)c12 (stereo partly drawn) [Example 632, N-(7-(8-ethyl-7-fluoro-3-hydroxynaphthalen-1-yl)-8-fluoro-2-(((2R,7aS)-2-fluorotetrahydro-1H-pyrrolizin-7a(5H)-yl)methoxy)pyrido[4,3-d]pyrimidin-4-yl)azepane-4-sulfonamide]",2180 nM,> 10000 nM,1870 nM,1200 nM,> 10000 nM
"CCc1c(F)ccc2cc(O)cc(-c3ncc4c(NCc5cn(C(=O)N(C)C)nc5NC(=O)C5CCC5O)nc(OC[C@@]56CCCN5C[C@H](F)C6)nc4c3F)c12 (stereo partly drawn) [Example 819, 4-(((7-(8-ethyl-7-fluoro-3-hydroxynaphthalen-1-yl)-8-fluoro-2-(((2R,7aS)-2-fluorotetrahydro-1H-pyrrolizin-7a(5H)-yl)methoxy)pyrido[4,3-d]pyrimidin-4-yl)amino)methyl)-3-(2-hydroxycyclobutane-1-carboxamido)-N,N-dimethyl-1H-pyrazole-1-carboxamide]",1130 nM,–,86 nM,24 nM,–
"CCc1cccc2cccc(-c3ncc4c(C5CCCOCC5)nc(OCC56CCCN5CCC6)nc4c3F)c12 (racemic) [Example 723, rac-(R)-7-(8-ethylnaphthalen-1-yl)-8-fluoro-4-(oxepan-4-yl)-2-((tetrahydro-1H-pyrrolizin-7a(5H)-yl)methoxy)pyrido[4,3-d]pyrimidine]",> 100000 nM,–,27500 nM,42800 nM,–
"O[C@@H]1CCCN(c2nc(OCC34CCCN3CCC4)nc3c(F)c(-c4cccc5cccc(Cl)c45)ncc23)C1 [Example 902, (R)-1-(7-(8-chloronaphthalen-1-yl)-8-fluoro-2-((tetrahydro-1H-pyrrolizin-7a(5H)-yl)methoxy)pyrido[4,3-d]pyrimidin-4-yl) piperidin-3-ol]",834 nM,–,876 nM,902 nM,–
"O[C@@H]1C[C@H]2C[C@@H]1CN(c1nc(OC[C@@]34CCCN3C[C@H](F)C4)nc3c(F)c(-c4cccc5cc(C(F)F)ccc45)ncc13)C2 [Example 841, (1R,5R,6R)-3-(7-(6-(difluoromethyl)naphthalen-1-yl)-8-fluoro-2-(((2R,7aS)-2-fluorotetrahydro-1H-pyrrolizin-7a(5H)-yl)methoxy)pyrido[4,3-d]pyrimidin-4-yl)-3-azabicyclo[3.2.1]octan-6-ol]",66900 nM,–,62900 nM,34000 nM,–
"CCc1c(F)ccc2cc(OC)cc(-c3ncc4c(N5C[C@@H]6C[C@H](C5)[C@H](O)C6)nc(OC[C@@]56CCCN5C[C@H](F)C6)nc4c3F)c12 [Example 777, (1R,5R,6R)-3-(7-(8-ethyl-7-fluoro-3-methoxynaphthalen-1-yl)-8-fluoro-2-(((2R,7aS)-2-fluorohexahydro-1H-pyrrolizin-7a-yl)methoxy)pyrido[4,3-d]pyrimidin-4-yl)-3-azabicyclo[3.2.1]octan-6-ol]",4190 nM,–,1320 nM,1050 nM,–
